In brackets after ≈: the same amount, converted by molar mass. Like-named read-outs stand apart in the source and are kept apart here.
Test: Assay (I): Determination of Solubility (96-well plate, pH 3.0-11.0, organic solvent 0-70% w/w, UV absorption at 280 nm)
Format: physicochemical
Settings: for GLP-1 peptide concentration: Method 2 (precipitation), 5° C.; for solubility thermodynamic at 24 h: read-out: Peptide concentration after 24 h
Description: Assay (I): Determination of Solubility
96-Well Plate Preparation
96-well plates containing target peptide in a solid form were prepared in one of two ways:
Method 1 (evaporation): Addition of 100 μl stock solution of said peptide at a concentration of 4-6 mg/ml to each well of a 96-well half area plate (150 μl well size). Subsequently the solvent was evaporated by applying a vacuum until the solvent was completely removed.
Method 2 (precipitation): Addition of a certain volume of a stock solution of said peptide containing to each well of a 96-well half area plate followed by the addition of a certain volume of concentrated phosphoric acid to obtain a pH of 4.6 followed by addition of a certain volume of ethanol resulting in a final ethanol concentration of 20% v/v. Subsequently the plate was stored at 4° C. for 1 h and then centrifuged at 4,000 rpm for 20 min. Finally the supernatant was removed. The concentration of the stock solution was chosen in a way that the final amount of peptide after supernatant removal was >0.4 mg per well.
In both cases the stock solution was prepared by adding de-ionized water to a certain amount of powder of said peptide followed by a stepwise addition of small amounts of a concentrated sodium hydroxide solution until said peptide was completely in solution.
To determine solubility of a target peptide at different pH and organic solvent concentrations, two different buffer systems were used in independent experiments to cover the whole range from pH 3.0 to pH 11.0. Buffer system 1 covers pH 3.0-7.5 and buffer system 2 covers pH 7.5-11.0. For each buffer system 96 different solvent compositions were premixed in the following way: • 1. A low pH buffer (adjusted to either pH 3.0 or pH 7.5) and a high pH buffer (adjusted to either pH 7.5 or pH 11.0) were mixed at 8 different ratios to obtain values between pH 3.0 and pH 7.5 or pH 7.5 and pH 11.0, respectively. The total volume after mixing was 300 μl. • 2. 12 different amounts of organic solvent were then added to these buffers to obtain organic solvent (e.g. ethanol) concentrations between 0 and 70% w/w. • 3. Water was then added to obtain a total weight of 1.0 g of solvent in each well.
After preparing the 96 different solvent systems, 100 μl of each system was transferred to the 96-well plate containing the solid form of the target peptide (prepared as described in the section “96-well plate preparation”). The plate was then stored at a given temperature (between 5° C. and 70° C.) for a given time on a rotating shaker set to 400 rpm. At regular time intervals the plate was centrifuged (4,000 rpm for 10 min) and a 10 μl sample was taken from each well. The samples were then analysed by UV absorption at 280 nm for peptide quantification. Peptide concentration results are given as UV absorption at 280 nm of the sample subtracted UV absorption at 280 nm of a well comprising 10 μl water.
The buffers used were as follows: • Buffer system 1 (for the pH range from pH 3.0-7.5)
• Buffer system 2 (for the pH ranae from pH 7.5-11.0)
Solubility of liraglutide was determined using Assay (I) described herein. Liraglutide was prepared using Method 1 (evaporation) or Method 2 (precipitation) as described in subsection “96-well plate preparation”.

## CCCCCCCCCCCCCCCC(=O)N[C@@H](CCC(=O)NCCCC[C@H](NC(=O)[C@H](C)NC(=O)[C@H](C)NC(=O)[C@H](CCC(N)=O)NC(=O)CNC(=O)[C@H](CCC(=O)O)NC(=O)[C@H](CC(C)C)NC(=O)[C@H](Cc1ccc(O)cc1)NC(=O)[C@H](CO)NC(=O)[C@H](CO)NC(=O)[C@@H](NC(=O)[C@H](CC(=O)O)NC(=O)[C@H](CO)NC(=O)[C@@H](NC(=O)[C@H](Cc1ccccc1)NC(=O)[C@@H](NC(=O)CNC(=O)[C@H](CCC(=O)O)NC(=O)[C@H](C)NC(=O)[C@@H](N)Cc1cnc[nH]1)[C@@H](C)O)[C@@H](C)O)C(C)C)C(=O)N[C@@H](CCC(=O)O)C(=O)N[C@@H](Cc1ccccc1)C(=O)N[C@H](C(=O)N[C@@H](C)C(=O)N[C@@H](Cc1c[nH]c2ccccc12)C(=O)N[C@@H](CC(C)C)C(=O)N[C@H](C(=O)N[C@@H](CCCNC(=N)N)C(=O)NCC(=O)N[C@@H](CCCNC(=N)N)C(=O)NCC(=O)O)C(C)C)[C@@H](C)CC)C(=O)O [liraglutide, Arg34,Lys26-(N-epsilon-(gamma-L-glutamyl(N-alfa-hexadecanoyl)))-GLP-1(7-37)]
MeCN 63.6% w/w, pH 10.00, 5 min, before removal of outliers
  GLP-1 peptide concentration: 0.4 mg/mL
MeCN 63.6% w/w, pH 10.00, 180 min, after removal of outliers
  GLP-1 peptide concentration: 2.9 mg/mL
MeCN 63.6% w/w, pH 10.00, 180 min, before removal of outliers
  GLP-1 peptide concentration: 2.9 mg/mL
MeCN 63.6% w/w, pH 10.00, 24 h, after removal of outliers
  GLP-1 peptide concentration: 1.0 mg/mL
MeCN 63.6% w/w, pH 10.00, 24 h, before removal of outliers
  GLP-1 peptide concentration: 1.0 mg/mL
MeCN 63.6% w/w, pH 10.50, 5 min, after removal of outliers
  GLP-1 peptide concentration: 0.6 mg/mL
MeCN 63.6% w/w, pH 10.50, 5 min, before removal of outliers
  GLP-1 peptide concentration: 0.6 mg/mL
MeCN 63.6% w/w, pH 10.50, 180 min, after removal of outliers
  GLP-1 peptide concentration: 3.4 mg/mL
MeCN 63.6% w/w, pH 10.50, 180 min, before removal of outliers
  GLP-1 peptide concentration: 3.4 mg/mL
MeCN 63.6% w/w, pH 10.50, 24 h, after removal of outliers
  GLP-1 peptide concentration: 1.3 mg/mL
MeCN 63.6% w/w, pH 10.50, 24 h, before removal of outliers
  GLP-1 peptide concentration: 1.3 mg/mL
MeCN 63.6% w/w, pH 11.00, 5 min, after removal of outliers
  GLP-1 peptide concentration: 0.5 mg/mL
MeCN 63.6% w/w, pH 11.00, 5 min, before removal of outliers
  GLP-1 peptide concentration: 0.5 mg/mL
MeCN 63.6% w/w, pH 11.00, 180 min, after removal of outliers
  GLP-1 peptide concentration: 3.2 mg/mL
MeCN 63.6% w/w, pH 11.00, 180 min, before removal of outliers
  GLP-1 peptide concentration: 3.2 mg/mL
MeCN 63.6% w/w, pH 11.00, 24 h, after removal of outliers
  GLP-1 peptide concentration: 1.0 mg/mL
MeCN 63.6% w/w, pH 11.00, 24 h, before removal of outliers
  GLP-1 peptide concentration: 1.0 mg/mL
MeCN 70.0% w/w, pH 7.50, 5 min, before removal of outliers
  GLP-1 peptide concentration: 0.3 mg/mL
MeCN 70.0% w/w, pH 7.50, 180 min, before removal of outliers
  GLP-1 peptide concentration: 0.7 mg/mL
MeCN 70.0% w/w, pH 7.50, 24 h, before removal of outliers
  GLP-1 peptide concentration: 1.6 mg/mL
MeCN 70.0% w/w, pH 8.00, 5 min, after removal of outliers
  GLP-1 peptide concentration: 0.4 mg/mL
MeCN 70.0% w/w, pH 8.00, 5 min, before removal of outliers
  GLP-1 peptide concentration: 0.4 mg/mL
MeCN 70.0% w/w, pH 8.00, 180 min, after removal of outliers
  GLP-1 peptide concentration: 1.0 mg/mL
MeCN 70.0% w/w, pH 8.00, 180 min, before removal of outliers
  GLP-1 peptide concentration: 1.0 mg/mL
MeCN 70.0% w/w, pH 8.00, 24 h, after removal of outliers
  GLP-1 peptide concentration: 2.5 mg/mL
MeCN 70.0% w/w, pH 8.00, 24 h, before removal of outliers
  GLP-1 peptide concentration: 2.5 mg/mL
MeCN 70.0% w/w, pH 8.50, 5 min, after removal of outliers
  GLP-1 peptide concentration: 0.4 mg/mL
MeCN 70.0% w/w, pH 8.50, 5 min, before removal of outliers
  GLP-1 peptide concentration: 0.4 mg/mL
MeCN 70.0% w/w, pH 8.50, 180 min, after removal of outliers
  GLP-1 peptide concentration: 1.4 mg/mL
MeCN 70.0% w/w, pH 8.50, 180 min, before removal of outliers
  GLP-1 peptide concentration: 1.4 mg/mL
MeCN 70.0% w/w, pH 8.50, 24 h, after removal of outliers
  GLP-1 peptide concentration: 3.3 mg/mL
MeCN 70.0% w/w, pH 8.50, 24 h, before removal of outliers
  GLP-1 peptide concentration: 3.3 mg/mL
MeCN 70.0% w/w, pH 9.00, 5 min, after removal of outliers
  GLP-1 peptide concentration: 0.4 mg/mL
MeCN 70.0% w/w, pH 9.00, 5 min, before removal of outliers
  GLP-1 peptide concentration: 0.4 mg/mL
MeCN 70.0% w/w, pH 9.00, 180 min, after removal of outliers
  GLP-1 peptide concentration: 1.5 mg/mL
MeCN 70.0% w/w, pH 9.00, 180 min, before removal of outliers
  GLP-1 peptide concentration: 1.5 mg/mL
MeCN 70.0% w/w, pH 9.00, 24 h, after removal of outliers
  GLP-1 peptide concentration: >4.0 mg/mL
MeCN 70.0% w/w, pH 9.00, 24 h, before removal of outliers
  GLP-1 peptide concentration: >4.0 mg/mL
MeCN 70.0% w/w, pH 9.50, 5 min, after removal of outliers
  GLP-1 peptide concentration: 0.5 mg/mL
MeCN 70.0% w/w, pH 9.50, 5 min, before removal of outliers
  GLP-1 peptide concentration: 0.5 mg/mL
MeCN 70.0% w/w, pH 9.50, 180 min, before removal of outliers
  GLP-1 peptide concentration: 1.9 mg/mL
MeCN 70.0% w/w, pH 9.50, 24 h, before removal of outliers
  GLP-1 peptide concentration: >4.0 mg/mL
Aqueous buffer / organic solvent mixture, pH 3.1, aqueous buffer, DMF 0.0% w/w, pH 3.1, RT, Method 1 (evaporation)
  solubility thermodynamic at 24 h: 300 µg/mL (≈ 80 µM)
Aqueous buffer / organic solvent mixture, pH 4.8, aqueous buffer, DMF 0.0% w/w, pH 4.8, RT, Method 1 (evaporation)
  solubility thermodynamic at 24 h: 200 µg/mL (≈ 53.3 µM)
Aqueous buffer / organic solvent mixture, pH 5.8, aqueous buffer, DMF 0.0% w/w, pH 5.8, RT, Method 1 (evaporation)
  solubility thermodynamic at 24 h: 1500 µg/mL (≈ 400 µM)
Aqueous buffer / organic solvent mixture, pH 6.7, aqueous buffer, DMF 0.0% w/w, pH 6.7, RT, Method 1 (evaporation)
  solubility thermodynamic at 24 h: 2200 µg/mL (≈ 586 µM)
pH 3, aqueous buffer, MeCN 0.0% w/w, pH 3.0, RT, Method 1
  solubility thermodynamic at 24 h: 100 µg/mL (≈ 26.7 µM)
pH 3.6, aqueous buffer, MeCN 0.0% w/w, pH 3.6, RT, Method 1
  solubility thermodynamic at 24 h: 100 µg/mL (≈ 26.7 µM)
pH 4.9, aqueous buffer, MeCN 0.0% w/w, pH 4.9, 5° C., Method 1
  solubility thermodynamic at 24 h: 100 µg/mL (≈ 26.7 µM)
pH 6.2, aqueous buffer, MeCN 0.0% w/w, pH 6.2, 5° C., Method 1
  solubility thermodynamic at 24 h: 100 µg/mL (≈ 26.7 µM)
pH 6.2, aqueous buffer, MeCN 0.0% w/w, pH 6.2, RT, Method 1
  solubility thermodynamic at 24 h: 500 µg/mL (≈ 133 µM)
Premixed buffer/organic solvent/water solvent system, pH 4.3, aqueous buffer, MeCN 0.0% w/w, pH 4.3, 5° C., Method 1
  solubility thermodynamic at 24 h: 200 µg/mL (≈ 53.3 µM)

Source: US20210261642A1, “SOLUBILITY OF GLP-1 PEPTIDE” (Novo Nordisk A/S, priority 2017, published 2021)
